Literature values, collected in US11877998B2, “Supplement composition” (H & H SCIENCE, LLC, priority 2017, dated 2024).

How the values were obtained:
[1] = test system: nonmelanoma skin cancer; conditions: oral, high risk group
[2] = test system: retinol-binding proteins (RBPs); conditions: acne patients, oral, after four weeks
[3] = test system: hair growth; conditions: men taking supplements

Row | Molecule | serum levels of retinol-binding proteins (RBPs) [2] | other results
1 | O=C(O)c1cccnc1 [oral niacin, niacin] | – | reduction of nonmelanoma skin cancer [1]: by a quarter
2 | [Zn] [zinc] | not observed | –
3 | vitamin A [oral vitamin A] | not observed | –
4 | vitamin E | – | hair growth versus placebo [3]: grew more hair
